Results taken from ChEMBL document CHEMBL4814056, “Discovery of chalcone analogues as novel NLRP3 inflammasome inhibitors with potent anti-inflammation activities” (Eur J Med Chem, 2021).
pIC50: −log10 of the molar value. Values belong to the compound of their own block, whether it stands above or below them. Activity calls are given as the source filed them. The rule behind the calls is not given here.

Key:
[1] = biological target: T1, NACHT, LRR and PYD domains-containing protein 3 (Mus musculus, UniProt Q8R4B8); assay: Inhibition of NLRP3 in mouse J774A.1 cells infected with FLA-ST assessed as inhibition of LPS- induced IL-1beta production by ELISA; assay type: cell-based, J774.A1
J774.A1 [2] = assay: Cytotoxicity against mouse J774A.1 cells assessed as reduction in cell viability at 2 hrs by CellTiter 96 AQueous One solution cell proliferation assay; assay type: cell-based; conditions: j774.a1, 2 h
[3] = Selectivity index, ratio of TC50 for cytotoxicity against human HEK293T cells to IC50 for inhibition of NLRP3 in mouse J774A.1 cells
[4] = biological target: NACHT, LRR and PYD domains-containing protein 3 (Mus musculus) (UniProt Q8R4B8); assay: Inhibition of NLRP3 inflammasome activation in LPS/nigericin-treated mouse J774A.1 cells assessed as blockade of caspase 1 p20 maturation pre-treated for 1 hr measured after 1 hr of stimulation by Western blot analysis; conditions: J774.A1, dose 1-5 µM, time 2.0 hrs
J774.A1 [5] = assay: Cytotoxicity against mouse J774A.1 cells assessed as reduction in cell viability at 24 hrs by CCK8 assay; assay type: cell-based; conditions: j774.a1, 24 h
Mus musculus [6] = assay: Antiinflammatory activity in po dosed LPS-induced sepsis C57BL/6 mouse model assessed as reduction in IL-1beta secretion in serum measured after 6 hrs by ELISA; assay type: functional, organism-based; conditions: dose 25-50 mg/kg
[7] = biological target: NACHT, LRR and PYD domains-containing protein 3 (Mus musculus) (UniProt Q8R4B8); assay: Inhibition of NLRP3 inflammasome activation in LPS/nigericin-treated mouse J774A.1 cells assessed as effect on pro-IL-1-beta pre-treated for 1 hr at 1 to 5 uM measured after 1 hr of stimulation by Western blot analysis; conditions: J774.A1, dose 1-5 µM, time 2.0 hrs
[8] = biological target: NACHT, LRR and PYD domains-containing protein 3 (Mus musculus) (UniProt Q8R4B8); assay: (§1) Inhibition of NLRP3 inflammasome activation in LPS/nigericin-treated mouse BMDM cells assessed as inhibition of LPS and nigericin-induced IL-1beta production pre-treated for 1 hr measured after 1 hr of stimulation by ELISA; assay type: cell-based; conditions: dose 1-5 µM, time 2.0 hrs
Mus musculus [9] = assay: Anti-colitis activity against DSS-induced colitis C57BL/6 mouse model assessed as reduction in IL-1 beta in colonic tissue treated orally once daily for 14 days started from day 3 post DSS-challenge by ELISA relative to control; assay type: functional, organism-based; conditions: dose 25-50 mg/kg, time 14.0 day
[10] = biological target: NACHT, LRR and PYD domains-containing protein 3 (Mus musculus) (UniProt Q8R4B8); assay: Inhibition of NLRP3 inflammasome activation in LPS/nigericin-treated mouse J774A.1 cells assessed as effect on […] in cell lysate pre-treated for 1 hr at 1 to 5 uM measured after 1 hr of stimulation by Western blot analysis; assay type: subcellular; conditions: J774.A1, dose 1-5 µM, time 2.0 hrs
[11] = biological target: NACHT, LRR and PYD domains-containing protein 3 (Mus musculus) (UniProt Q8R4B8); assay: Inhibition of NLRP3 inflammasome activation in LPS/nigericin-treated mouse J774A.1 cells assessed as blockade of IL-1beta secretion pre-treated for 1 hr measured after 1 hr of stimulation by Western blot analysis; conditions: J774.A1, dose 1-5 µM, time 2.0 hrs
Mus musculus [12] = assay: Antiinflammatory activity in po dosed LPS-induced sepsis C57BL/6 mouse model assessed as reduction in IL-1beta secretion in peritonial fluid measured after 6 hrs by ELISA; assay type: functional, organism-based; conditions: dose 25-50 mg/kg
J774.A1 [13] = assay: Inhibition of IL-1 beta release in LPS/nigericin-induced mouse J774.A1 cells pre-treated for 1 hr at 1 to 5 uM measured after 1 hr of stimulation by Western blot analysis; assay type: functional; conditions: dose 1-5 µM, time 2.0 hrs
J774.A1 [14] = assay: Inhibition of reactive oxygen species generation in LPS/nigericin-induced mouse J774.A1 cells pre-treated for 1 hr at 1 to 5 uM measured after 1 hr of stimulation by DCFH-DA staining-based method relative to control; assay type: functional, cell-based; conditions: dose 1-5 µM, time 2.0 hrs
[15] = Stability assessed as glutathione reactivity of compound incubated for 24 hrs; assay type: physicochemical
J774.A1 [16] = assay: Inhibition of mitochondrial reactive oxygen species generation in LPS/nigericin-induced mouse J774.A1 cells pre-treated for 1 hr at 1 to 5 uM measured after 1 hr of stimulation by MitoSOX Red fluorescence microplate-reader relative to control; assay type: functional; conditions: dose 1-5 µM, time 2.0 hrs
[17] = biological target: NLR family CARD domain-containing protein 4 (Mus musculus) (UniProt Q3UP24); assay: Inhibition of NLRC4 inflammasome activation in LPS-induced mouse […] cells infected with […] pre-treated for 1 hr at 1 to 5 uM measured after 1 hr of stimulation; conditions: J774.A1, dose 1-5 µM, time 2.0 hrs
[18] = biological target: NACHT, LRR and PYD domains-containing protein 3 (Mus musculus) (UniProt Q8R4B8); assay: Inhibition of NLRP3 inflammasome activation in LPS/nigericin-treated mouse J774A.1 cells assessed as effect on pro-caspase-1 pre-treated for 1 hr at 1 to 5 uM measured after 1 hr of stimulation by Western blot analysis; conditions: J774.A1, dose 1-5 µM
[19] = Cytotoxicity against human HEK293T cells assessed as reduction in cell viability at 24 hrs by CCK8 assay; assay type: cell-based, HEK-293T; conditions: read-out: TD50
[20] = biological target: NACHT, LRR and PYD domains-containing protein 3 (Mus musculus) (UniProt Q8R4B8); assay: Inhibition of NLRP3 inflammasome activation in LPS/nigericin-treated mouse J774A.1 cells assessed as inhibition of LPS and nigericin-induced IL-1beta production pre-treated for 1 hr measured after 1 hr of stimulation by ELISA; conditions: J774.A1, dose 1-5 µM, time 2.0 hrs
J774.A1 [21] = assay: Anti-pyroptosis activity against LPS/nigericin-induced mouse […] cells pre-treated for 1 hr at 1 to 5 uM measured after 1 hr of stimulation; assay type: functional, cell-based; conditions: dose 1-5 µM
Mus musculus [22] = assay: Anti-colitis activity against DSS-induced colitis C57BL/6 mouse model assessed as reduction in fecal occult blood treated orally once daily for 14 days started from day 3 post DSS-challenge; assay type: functional, organism-based; conditions: dose 25-50 mg/kg, time 14.0 day
[23] = biological target: T2, Interferon-inducible protein AIM2 (Mus musculus) (UniProt Q91VJ1); assay: Inhibition of AIM2 inflammasome activation in LPS-induced mouse […] cells infected with […] pre-treated for 1 hr at 1 to 5 uM measured after 1 hr of stimulation; conditions: J774.A1, dose 1-5 µM, time 2.0 hrs
T2 sequence (whole entry): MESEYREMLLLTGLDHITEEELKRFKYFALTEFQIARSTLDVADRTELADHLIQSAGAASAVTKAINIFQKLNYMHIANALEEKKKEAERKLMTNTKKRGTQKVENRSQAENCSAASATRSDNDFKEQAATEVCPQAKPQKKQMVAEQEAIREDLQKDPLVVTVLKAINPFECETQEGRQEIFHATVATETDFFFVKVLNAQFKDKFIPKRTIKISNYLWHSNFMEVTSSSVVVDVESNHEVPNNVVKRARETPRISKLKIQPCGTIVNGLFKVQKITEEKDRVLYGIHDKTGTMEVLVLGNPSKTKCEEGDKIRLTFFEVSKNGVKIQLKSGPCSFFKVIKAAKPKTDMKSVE

J774.A1 [24] = assay: Inhibition of reactive oxygen species generation in LPS/nigericin-induced mouse J774.A1 cells pre-treated for 1 hr at 1 to 5 uM measured after 1 hr of stimulation by fluorescence microplate-reader relative to control; assay type: functional, cell-based; conditions: dose 1-5 µM, time 2.0 hrs
Mus musculus [25] = assay: Anti-colitis activity against DSS-induced colitis C57BL/6 mouse model assessed as reduction in colon length treated orally once daily for 14 days started from day 3 post DSS-challenge; assay type: functional, organism-based; conditions: dose 25-50 mg/kg, time 14.0 day
[26] = biological target: T1, NACHT, LRR and PYD domains-containing protein 3; assay: as §1; assay type: cell-based

T1 sequence (Q8R4B8 whole entry, the tested form may be a part): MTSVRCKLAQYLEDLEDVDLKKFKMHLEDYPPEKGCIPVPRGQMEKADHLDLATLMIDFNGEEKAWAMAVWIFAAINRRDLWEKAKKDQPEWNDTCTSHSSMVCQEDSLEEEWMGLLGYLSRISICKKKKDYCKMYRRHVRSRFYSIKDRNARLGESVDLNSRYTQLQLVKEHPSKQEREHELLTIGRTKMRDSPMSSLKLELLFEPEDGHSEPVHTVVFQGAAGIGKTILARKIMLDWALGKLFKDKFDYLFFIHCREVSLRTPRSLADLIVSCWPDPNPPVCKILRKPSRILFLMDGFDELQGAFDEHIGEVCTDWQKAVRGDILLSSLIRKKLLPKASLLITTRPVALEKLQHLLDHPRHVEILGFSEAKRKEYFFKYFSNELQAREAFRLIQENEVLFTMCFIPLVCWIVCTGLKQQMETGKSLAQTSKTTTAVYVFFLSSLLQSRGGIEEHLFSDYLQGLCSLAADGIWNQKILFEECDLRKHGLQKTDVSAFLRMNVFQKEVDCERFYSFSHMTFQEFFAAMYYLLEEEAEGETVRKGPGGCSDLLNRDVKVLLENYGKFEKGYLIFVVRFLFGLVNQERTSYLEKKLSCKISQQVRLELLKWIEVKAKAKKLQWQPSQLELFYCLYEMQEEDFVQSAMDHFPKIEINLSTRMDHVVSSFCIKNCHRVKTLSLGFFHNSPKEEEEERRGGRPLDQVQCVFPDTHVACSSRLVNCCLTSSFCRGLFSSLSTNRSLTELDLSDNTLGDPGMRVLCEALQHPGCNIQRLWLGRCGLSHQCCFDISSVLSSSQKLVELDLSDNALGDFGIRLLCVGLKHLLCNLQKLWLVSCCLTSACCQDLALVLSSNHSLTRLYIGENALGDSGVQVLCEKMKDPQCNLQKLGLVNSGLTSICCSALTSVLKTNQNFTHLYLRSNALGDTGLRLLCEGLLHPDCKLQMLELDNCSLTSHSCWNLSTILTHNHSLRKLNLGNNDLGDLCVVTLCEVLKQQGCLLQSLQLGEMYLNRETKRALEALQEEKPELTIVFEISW
Chain of NACHT, LRR and PYD domains-containing protein 3 (Mus musculus) (Q8R4B8 whole entry, the tested form may be a part): as above
Chain of NLR family CARD domain-containing protein 4 (Mus musculus) (Q3UP24 whole entry, the tested form may be a part): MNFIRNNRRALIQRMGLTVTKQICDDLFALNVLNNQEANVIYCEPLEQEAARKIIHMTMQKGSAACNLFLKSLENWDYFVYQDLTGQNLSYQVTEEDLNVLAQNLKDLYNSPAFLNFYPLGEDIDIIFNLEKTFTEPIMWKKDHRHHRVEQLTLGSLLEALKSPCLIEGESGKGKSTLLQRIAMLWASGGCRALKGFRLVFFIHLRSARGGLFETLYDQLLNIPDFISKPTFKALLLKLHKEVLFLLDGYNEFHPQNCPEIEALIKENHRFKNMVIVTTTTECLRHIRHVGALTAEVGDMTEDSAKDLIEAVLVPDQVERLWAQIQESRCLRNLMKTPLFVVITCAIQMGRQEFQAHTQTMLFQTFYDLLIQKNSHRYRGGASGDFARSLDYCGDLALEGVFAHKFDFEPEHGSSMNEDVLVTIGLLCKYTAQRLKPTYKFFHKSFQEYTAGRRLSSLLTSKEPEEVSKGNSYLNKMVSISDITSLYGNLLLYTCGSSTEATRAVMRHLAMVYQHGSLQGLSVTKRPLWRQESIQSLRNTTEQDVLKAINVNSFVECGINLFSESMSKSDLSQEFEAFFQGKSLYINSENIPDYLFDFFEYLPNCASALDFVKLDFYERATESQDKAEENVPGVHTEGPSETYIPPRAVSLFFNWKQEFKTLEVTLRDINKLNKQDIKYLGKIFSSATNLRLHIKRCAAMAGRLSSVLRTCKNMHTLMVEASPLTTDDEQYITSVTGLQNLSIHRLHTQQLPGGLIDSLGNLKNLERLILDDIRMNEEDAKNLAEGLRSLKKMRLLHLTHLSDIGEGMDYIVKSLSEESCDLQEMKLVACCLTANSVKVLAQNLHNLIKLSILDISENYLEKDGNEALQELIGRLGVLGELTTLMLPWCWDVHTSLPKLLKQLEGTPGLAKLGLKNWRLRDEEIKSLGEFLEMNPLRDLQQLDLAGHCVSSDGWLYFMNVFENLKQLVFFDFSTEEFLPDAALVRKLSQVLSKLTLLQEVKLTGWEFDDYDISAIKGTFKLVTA

pIC50 [1]: 4.90
Structure (SMILES): CSc1ccc(C(=O)/C=C/c2cc(C)c(OCCO)c(C)c2)cc1

pIC50 [1]: 5.24
Structure (SMILES): COc1c(C)cc(/C=C/C(=O)c2ccc(N)cc2)cc1C

inhibition [4]: Dose-Dependent Effect
inhibition [7]: inactive
inhibition [8]: Dose-Dependent Effect
inhibition [10]: inactive
inhibition [11]: inactive
Stabilty [15]: Stable
inhibition [17]: inactive
Activity [18]: inactive
inhibition [20]: Dose-Dependent Effect
pIC50 [1]: 5.89
inhibition [23]: inactive
Structure (SMILES): C=CC(=O)Nc1ccc(C(=O)/C=C/c2cc(C)c(O)c(C)c2)cc1
Activity (J774.A1 [2]): Non-Toxic
Selectivity Index [3]: 119.7
Activity (J774.A1 [5]): Toxic
Activity (Mus musculus [6]): Dose-Dependent Effect
Activity (Mus musculus [9]): Active
Activity (Mus musculus [12]): Dose-Dependent Effect
inhibition (J774.A1 [13]): Active
inhibition (J774.A1 [14]): Active
inhibition (J774.A1 [16]): Active
CC50 at 24 h [19]: 156 µM
Activity (J774.A1 [21]): Active
Activity (Mus musculus [22]): Active
inhibition (J774.A1 [24]): Active
Activity (Mus musculus [25]): Active

pIC50 [1]: 5.00
Structure (SMILES): COc1cc(/C=C/C(=O)c2ccc(SC)cc2)ccc1O

pIC50 [1]: 5.30
Structure (SMILES): Cc1cc(/C=C/C(=O)c2ccc(NS(=O)(=O)c3ccc(F)cc3)cc2)cc(C)c1O

pIC50 [1]: 4.65
Structure (SMILES): CCCNC(=O)Oc1c(C)cc(/C=C/C(=O)c2ccc(SC)cc2)cc1C

pIC50 [1]: 5.46
Structure (SMILES): CSc1ccc(C(=O)/C=C/c2ccc(C(=O)O)cc2)cc1

pIC50 [1]: 4.97
Structure (SMILES): Cc1cc(/C=C/C(=O)c2ccc([S+](C)[O-])cc2)cc(C)c1O (stereo unspecified)

pIC50 [1]: 4.50
Structure (SMILES): CCC(Oc1c(C)cc(/C=C/C(=O)c2ccc(SC)cc2)cc1C)C(=O)O (stereo unspecified)

pIC50 [1]: < 4.40
Structure (SMILES): C=C(COc1c(C)cc(/C=C/C(=O)c2ccc(SC)cc2)cc1C)C(=O)O

pIC50 [1]: < 4.40
Structure (SMILES): COc1cc(/C=C/C(=O)c2ccc(SC)cc2)cc(OC)c1O

pIC50 [1]: < 4.40
Structure (SMILES): Cc1cc(/C=C/C(=O)c2ccc(-c3cccs3)cc2)cc(C)c1O

Further lines, the compound ahead of its results:

Structure (SMILES): CCCNC(=O)Nc1ccc(C(=O)/C=C/c2cc(C)c(OC)c(C)c2)cc1
pIC50 [1]: 5.02

Structure (SMILES): COc1c(C)cc(/C=C/C(=O)c2ccc(NC(=O)NC(C)C)cc2)cc1C
pIC50 [1]: 4.48

Structure (SMILES): O=C(O)c1ccc(/C=C2\SC(=S)N(Cc3cccc(C(F)(F)F)c3)C2=O)cc1
pIC50 [26]: 6.00

Structure (SMILES): CSc1ccc(C(=O)/C=C/c2cc(C)c(OCCCCC(=O)O)c(C)c2)cc1
pIC50 [1]: 4.54

Structure (SMILES): CSc1ccc(C(=O)/C=C/c2cc(C)c(OCCCN3CCOCC3)c(C)c2)cc1
pIC50 [1]: 4.66

Structure (SMILES): CSc1ccc(C(=O)/C=C/c2ccc(O)c(F)c2)cc1
pIC50 [1]: 4.97

Structure (SMILES): Cc1cc(/C=C/C(=O)c2ccc(NS(=O)(=O)NC(C)C)cc2)cc(C)c1O
pIC50 [1]: 5.47

Structure (SMILES): CSc1ccc(C(=O)/C=C/c2cc(C)c(O)c(C)c2)cc1
Selectivity Index [3]: 41
Stabilty [15]: Stable
CC50 at 24 h [19]: 86.2 µM
pIC50 [1]: 5.68

Structure (SMILES): CSc1ccc(C(=O)/C=C/c2cc(C)c(OC(C)(C)C(=O)O)c(C)c2)cc1 [ELAFIBRANOR]
Selectivity Index [3]: 3.6
CC50 at 24 h [19]: 142 µM
pIC50 [1]: 4.40

Structure (SMILES): CSc1ccc(C(=O)/C=C/c2ccc3c(c2)CCO3)cc1
pIC50 [1]: 4.62
